From ChEMBL document CHEMBL4842307, “Targeted Isolation of Saalfelduracin B-D from Amycolatopsis saalfeldensis Using LC-MS/MS-Based Molecular Networking” (2021)
≈ marks a conversion by molar mass, not a printed value.

Legend:
Type in all cases: functional
Escherichia coli = test: Antimicrobial activity against Escherichia coli ATCC35218 assessed as growth inhibition after 24 hrs by microdilution assay
Staphylococcus aureus = test: Antimicrobial activity against Staphylococcus aureus ATCC12715 assessed as growth inhibition after 24 hrs by microdilution assay
[1] = test system: Staphylococcus epidermidis; test: Antimicrobial activity against Staphylococcus epidermis CCM628 assessed as growth inhibition after 24 hrs by microdilution assay
Bacillus subtilis = test: Antimicrobial activity against Bacillus subtilis ATCC9372 assessed as growth inhibition after 24 hrs by microdilution assay
Candida albicans = test: Antimicrobial activity against Candida albicans SC5314 assessed as growth inhibition after 24 hrs by microdilution assay

O=C(O)c1cn(C2CC2)c2cc(N3CCNCC3)c(F)cc2c1=O [CIPROFLOXACIN]
MIC (Escherichia coli): < 0.01 mg/L
MIC (Staphylococcus aureus): 0.06 mg/L (≈ 0.181 µM)
MIC [1]: 0.06 mg/L (≈ 0.181 µM)
MIC (Bacillus subtilis): 0.06 mg/L (≈ 0.181 µM)
MIC (Candida albicans): > 64 mg/L

C=C(NC(=O)C(=C)NC(=O)c1csc(C2=N[C@@H]3c4csc(n4)[C@H]4NC(=O)c5csc(n5)[C@H]([C@@](C)(O)[C@H](C)O)NC(=O)[C@H]5CSC(=N5)/C(=C/C)NC(=O)[C@H]([C@@H](C)O)NC(=O)c5csc(n5)[C@]3(CC2)NC(=O)[C@H](C)NC(=O)C(=C)NC(=O)[C@H](C)NC(=O)[C@H]([C@@H](C)CC)N[C@@H]2C=Cc3c([C@H](C)O)cc(nc3[C@H]2O)C(=O)O[C@@H]4C)n1)C(N)=O
MIC (Escherichia coli): > 64 mg/L
MIC (Staphylococcus aureus): 0.06 mg/L (≈ 0.036 µM)
MIC [1]: < 0.01 mg/L
MIC (Bacillus subtilis): 0.06 mg/L (≈ 0.036 µM)
MIC (Candida albicans): > 64 mg/L

C[C@@H]1[C@H](O)[C@@H](C)/C=C/C=C/C=C/C=C/C=C/C=C/C=C/[C@H](O[C@@H]2O[C@H](C)[C@@H](O)[C@H](N)[C@@H]2O)C[C@@H]2O[C@](O)(C[C@@H](O)C[C@@H](O)[C@H](O)CC[C@@H](O)C[C@@H](O)CC(=O)O[C@H]1C)C[C@H](O)[C@H]2C(=O)O [AMPHOTERICIN B]
MIC (Escherichia coli): > 64 mg/L
MIC (Staphylococcus aureus): > 64 mg/L
MIC [1]: > 64 mg/L
MIC (Bacillus subtilis): > 64 mg/L
MIC (Candida albicans): 0.25 mg/L (≈ 0.271 µM)

C=C(NC(=O)C(=C)NC(=O)c1csc([C@H]2CC[C@]34NC(=O)C(=C)NC(=O)C(=C)NC(=O)C(=C)NC(=O)[C@H](C)N[C@@H]5C=Cc6c([C@H](C)O)cc(nc6[C@H]5O)C(=O)O[C@H](C)[C@H](NC(=S)c5csc(n5)[C@H]([C@@](C)(O)[C@H](C)O)NC(=O)[C@H]5CSC(=N5)/C(=C/C)NC(=O)[C@H]([C@@H](C)O)NC(=O)c5csc3n5)c3nc(cs3)[C@H]4N2)n1)C(=O)O
MIC (Escherichia coli): > 64 mg/L
MIC (Staphylococcus aureus): 0.5 mg/L (≈ 0.305 µM)
MIC [1]: 0.25 mg/L (≈ 0.153 µM)
MIC (Bacillus subtilis): 0.25 mg/L (≈ 0.153 µM)
MIC (Candida albicans): > 64 mg/L

C=C1NC(=O)C(=C)NC(=O)[C@H](C)N[C@@H]2C=Cc3c([C@H](C)O)cc(nc3[C@H]2O)C(=O)O[C@H](C)[C@@H]2NC(=S)c3csc(n3)[C@H]([C@@](C)(O)[C@H](C)O)NC(=O)[C@H]3CSC(=N3)/C(=C/C)NC(=O)[C@H]([C@@H](C)O)NC(=O)c3csc(n3)[C@]3(CC[C@H](c4nc(C(N)=O)cs4)N[C@@H]3c3csc2n3)NC(=O)C(=C)NC1=O
MIC (Escherichia coli): > 64 mg/L
MIC (Staphylococcus aureus): 1 mg/L (≈ 0.667 µM)
MIC [1]: 0.5 mg/L (≈ 0.334 µM)
MIC (Bacillus subtilis): 1 mg/L (≈ 0.667 µM)
MIC (Candida albicans): > 64 mg/L

C=C(NC(=O)c1csc([C@H]2CC[C@]34NC(=O)C(=C)NC(=O)C(=C)NC(=O)C(=C)NC(=O)[C@H](C)N[C@@H]5C=Cc6c([C@H](C)O)cc(nc6[C@H]5O)C(=O)O[C@H](C)[C@H](NC(=S)c5csc(n5)[C@H]([C@@](C)(O)[C@H](C)O)NC(=O)[C@H]5CSC(=N5)/C(=C/C)NC(=O)[C@H]([C@@H](C)O)NC(=O)c5csc3n5)c3nc(cs3)[C@H]4N2)n1)C(N)=O
MIC (Escherichia coli): > 64 mg/L
MIC (Staphylococcus aureus): 2 mg/L (≈ 1.28 µM)
MIC [1]: 0.5 mg/L (≈ 0.319 µM)
MIC (Bacillus subtilis): 1 mg/L (≈ 0.638 µM)
MIC (Candida albicans): > 64 mg/L

C=C(NC(=O)C(=C)NC(=O)c1csc([C@H]2CC[C@]34NC(=O)C(=C)NC(=O)C(=C)NC(=O)C(=C)NC(=O)[C@H](C)N[C@@H]5C=Cc6c([C@H](C)O)cc(nc6[C@H]5O)C(=O)O[C@H](C)[C@H](NC(=O)c5csc(n5)[C@H]([C@@](C)(O)[C@H](C)O)NC(=O)[C@H]5CSC(=N5)/C(=C/C)NC(=O)[C@H]([C@@H](C)O)NC(=O)c5csc3n5)c3nc(cs3)[C@H]4N2)n1)C(=O)O
MIC (Escherichia coli): > 64 mg/L
MIC (Staphylococcus aureus): 8 mg/L (≈ 4.93 µM)
MIC [1]: 2 mg/L (≈ 1.23 µM)
MIC (Bacillus subtilis): 8 mg/L (≈ 4.93 µM)
MIC (Candida albicans): > 64 mg/L
